Numbered stars: 1 amine (or outer) side, 2 acyl side, 3 side chain; on linkers, the order of the positions; unused ones are H or OH. Square brackets hold non-standard residues; d marks the D form. Side chains are listed from the residue outwards. Peptide text beside a SMILES is read from it. * marks the point of attachment. C20 diacid = O=C(O)CCCCCCCCCCCCCCCCCCC(=O)*; γGlu = O=C(O)[C@H](CCC(=O)[*:2])N[*:1]; αMeY = C[C@](N)(Cc1ccc(O)cc1)C(=O)O; αMeL = CC(C)C[C@](C)(N)C(=O)O; Orn = NCCC[C@H](N)C(=O)O; AEEA = NCCOCCOCC(=O)O; Aib = CC(C)(N)C(=O)O
Legend:
human GIP receptor = biological target: T1, human GIP receptor (Homo sapiens, UniProt P48546); test: [125I]-GIP binding (SPA), human GIP receptor; settings: read-out: hGIPR Ki, nM (SEM, n)
T1 construct: expressed in transfected cells; crude membranes
T1 sequence (P48546 22-466): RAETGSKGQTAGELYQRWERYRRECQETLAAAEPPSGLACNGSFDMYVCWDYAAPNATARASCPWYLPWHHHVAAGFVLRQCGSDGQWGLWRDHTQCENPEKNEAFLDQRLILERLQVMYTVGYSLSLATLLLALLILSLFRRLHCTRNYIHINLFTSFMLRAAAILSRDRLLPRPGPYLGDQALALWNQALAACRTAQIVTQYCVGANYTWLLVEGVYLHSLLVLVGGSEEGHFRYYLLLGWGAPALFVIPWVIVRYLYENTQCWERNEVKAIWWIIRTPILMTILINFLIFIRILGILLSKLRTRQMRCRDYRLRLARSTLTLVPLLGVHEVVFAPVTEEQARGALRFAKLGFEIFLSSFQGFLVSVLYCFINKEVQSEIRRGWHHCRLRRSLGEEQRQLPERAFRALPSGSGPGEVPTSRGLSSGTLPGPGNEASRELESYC

[1] = biological target: T2, gastric inhibitory peptide receptor (GIPR) (Homo sapiens, UniProt P48546); test: cAMP pharmacological functional assay in presence of casein, hGIPR; type: cell-based; settings: HEK293 cells expressing hGIPR, 0.1% Casein, geometric mean; read-out: hGIPR cAMP Rel EC50 nM (SEM, n)
T2 sequence (P48546 22-466): T1 sequence (P48546 22-466)

[2] = biological target: human GLP-1 receptor (GLP-1R) (Homo sapiens, UniProt P43220); test: cAMP pharmacological functional assay in presence of casein, hGLP-1R; type: cell-based; settings: HEK293 cells expressing hGLP-1R, 0.1% Casein, geometric mean; read-out: hGLP1R cAMP Rel EC50 nM (SEM, n)
Sequence of human GLP-1 receptor (GLP-1R) (P43220 24-463): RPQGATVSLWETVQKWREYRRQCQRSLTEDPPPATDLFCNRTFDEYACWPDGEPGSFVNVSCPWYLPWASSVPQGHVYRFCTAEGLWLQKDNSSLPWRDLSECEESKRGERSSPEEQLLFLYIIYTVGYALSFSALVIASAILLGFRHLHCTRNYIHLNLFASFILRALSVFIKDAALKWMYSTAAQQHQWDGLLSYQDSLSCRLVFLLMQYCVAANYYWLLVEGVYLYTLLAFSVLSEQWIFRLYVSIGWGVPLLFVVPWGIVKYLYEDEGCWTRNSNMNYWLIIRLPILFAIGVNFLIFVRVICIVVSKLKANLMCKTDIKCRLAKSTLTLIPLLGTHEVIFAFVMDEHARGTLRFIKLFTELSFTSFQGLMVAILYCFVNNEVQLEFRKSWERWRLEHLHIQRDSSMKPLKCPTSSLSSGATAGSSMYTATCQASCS

human GLP-1R [3] = biological target: T3, human GLP-1R (Homo sapiens, UniProt P43220); test: GLP-1R CHO cell β-arrestin recruitment assay; type: cell-based; design: host or cells: CHO-K1 PathHunter cells, assay-ready frozen; settings: for EC50: CHO-K1 cells, PathHunter β-arrestin-2 recruitment, 0.1% casein, read-out: hGLP1R B-Arrestin2 Rel EC50 uM (SEM, n); for hGLP1R B-Arrestin2 % Top: normalized to GLP-1 maximum control
T3 sequence (P43220 24-463): as above
Method in brief: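 Peptide-induced β-arrestin-2 recruitment measured by enzyme-fragment complementation luminescence after 90 min at 37 °C plus 60 min detection at RT.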

human Gcg receptor = biological target: T4, human Gcg receptor (Homo sapiens, UniProt P47871); test: [125I]-Glucagon binding (SPA), human Gcg receptor; settings: read-out: hGLcgR Ki, nM (SEM, n)
T4 construct: expressed in transfected cells; crude membranes
T4 sequence (P47871 26-477): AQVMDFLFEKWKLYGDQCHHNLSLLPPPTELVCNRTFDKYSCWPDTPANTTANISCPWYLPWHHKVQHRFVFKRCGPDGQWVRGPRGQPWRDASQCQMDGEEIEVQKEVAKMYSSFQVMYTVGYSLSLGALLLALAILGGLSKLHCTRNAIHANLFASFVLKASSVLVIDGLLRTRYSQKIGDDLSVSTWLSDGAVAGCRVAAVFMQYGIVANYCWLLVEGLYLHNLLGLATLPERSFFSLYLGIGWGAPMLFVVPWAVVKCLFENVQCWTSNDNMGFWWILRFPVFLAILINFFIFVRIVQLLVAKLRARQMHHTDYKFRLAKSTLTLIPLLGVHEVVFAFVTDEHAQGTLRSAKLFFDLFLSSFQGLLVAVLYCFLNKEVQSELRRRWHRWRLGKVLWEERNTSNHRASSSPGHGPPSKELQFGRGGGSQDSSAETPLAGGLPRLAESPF
Method in brief: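 Cell pellets were lysed in hypotonic Tris buffer, pH 7.5, homogenized, and spun at low then high speed to give crude membranes. Ki was derived from the fitted IC50.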

human GLP-1R [4] = biological target: T3, human GLP-1R; test: [125I]-GLP-1 binding (SPA), human GLP-1 receptor; design: expressed in transfected cells; crude membranes; settings: read-out: hGLP1R Ki, (nM) (SEM, n)
Method in brief: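 Membranes: hypotonic lysis (50 mM Tris HCl, pH 7.5, protease inhibitors), Potter-Elvehjem homogenization, high-speed pellet (35000×g 1 h or 25000×g 30 min, 4° C.). Buffer: 25 mM HEPES pH 7.4, 2.5 mM CaCl2, 1 mM MgCl2. Four-parameter IC50 fit; Ki as geometric mean ± SEM.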

human GLP-1R [5] = biological target: T3, human GLP-1R; test: GLP-1R HEK293 cell membrane [35S]GTPγS binding assay; type: biochemical; design: expressed in transfected cells; host or cells: HEK293 cells expressing human GLP-1R; membranes; settings: HEK293 cell membranes expressing human GLP-1R, [35S]GTPγS binding; read-out: hGLP1R GTPgS Rel EC50 nM (SEM, n)
Method in brief: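 Agonist-driven Gαs activation read as [35S]GTPγS ([…]) binding to receptor-expressing HEK293 membranes, 30 min at room temperature, pH 7.4. Detection by anti-Gαs immunocapture on scintillation beads; EC50 derived from four-parameter logistic concentration-response fit.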

| SMILES | Ki (human GIP receptor) [nM] | EC50 [1] [nM] | EC50 [2] [nM] | EC50 (human GLP-1R [3]) [µM] | hGLP1R B-Arrestin2 % Top (human GLP-1R [3]) [%] | Ki (human Gcg receptor) [nM] | Ki (human GLP-1R [4]) [nM] | EC50 (human GLP-1R [5]) [nM] |
| --- | --- | --- | --- | --- | --- | --- | --- | --- |
| CC[C@H](C)[C@H](NC(=O)[C@H](CC(C)C)NC(=O)[C@H](Cc1ccc(O)cc1)NC(=O)[C@H](CCC(=O)O)NC(=O)[C@@H](NC(=O)[C@H](Cc1ccccc1)NC(=O)[C@H](C)NC(=O)C(C)(C)NC(=O)[C@H](CCC(N)=O)NC(=O)[C@H](C)NC(=O)[C@H](CCCCNC(=O)COCCOCCNC(=O)COCCOCCNC(=O)CC[C@H](NC(=O)CCCCCCCCCCCCCCCCCCC(=O)O)C(=O)O)NC(=O)[C@H](CCCN)NC(=O)[C@H](CC(=O)O)NC(=O)[C@H](CC(C)C)NC(=O)[C@](C)(CC(C)C)NC(=O)[C@@H](NC(=O)[C@H](CO)NC(=O)[C@H](Cc1ccc(O)cc1)NC(=O)[C@H](CC(=O)O)NC(=O)[C@H](CO)NC(=O)[C@@H](NC(=O)[C@H](Cc1ccccc1)NC(=O)[C@@H](NC(=O)CNC(=O)[C@H](CCC(=O)O)NC(=O)C(C)(C)NC(=O)[C@H](N)Cc1ccc(O)cc1)[C@@H](C)O)[C@@H](C)O)[C@@H](C)CC)C(C)C)C(=O)N[C@@H](C)C(=O)NCC(=O)NCC(=O)N1CCC[C@H]1C(=O)N[C@@H](CO)C(=O)N[C@@H](CO)C(=O)NCC(=O)N[C@@H](C)C(=O)N1CCC[C@H]1C(=O)N1CCC[C@H]1C(=O)N1CCC[C@H]1C(=O)N[C@@H](CO)C(N)=O [Example 358] (H-[dY][Aib]EGTFTSDYSI[αMeL]LD[Orn]K([AEEA-AEEA-γGlu-C20 diacid])AQ[Aib]AFVEYLIAGGPSSGAPPPS-NH2; N-terminus assumed) | 0.0636 | 0.183 | 0.117 | 0.00938 | 21.4 | 915 | 1.37 | 0.414 |
| CC[C@H](C)[C@H](NC(=O)[C@H](CC(C)C)NC(=O)[C@](C)(Cc1ccc(O)cc1)NC(=O)[C@H](CCC(=O)O)NC(=O)[C@@H](NC(=O)[C@H](Cc1ccccc1)NC(=O)[C@H](CCC(=O)O)NC(=O)C(C)(C)NC(=O)[C@H](CCC(N)=O)NC(=O)[C@H](C)NC(=O)[C@H](CCCCNC(=O)COCCOCCNC(=O)COCCOCCNC(=O)CC[C@H](NC(=O)CCCCCCCCCCCCCCCCCCC(=O)O)C(=O)O)NC(=O)[C@H](CCCCN)NC(=O)[C@H](CC(=O)O)NC(=O)[C@H](CC(C)C)NC(=O)[C@](C)(CC(C)C)NC(=O)[C@@H](NC(=O)[C@H](CO)NC(=O)[C@H](Cc1ccc(O)cc1)NC(=O)[C@H](CC(=O)O)NC(=O)[C@H](CO)NC(=O)[C@@H](NC(=O)[C@H](Cc1ccccc1)NC(=O)[C@@H](NC(=O)CNC(=O)[C@H](CCC(=O)O)NC(=O)C(C)(C)NC(=O)[C@H](N)Cc1ccc(O)cc1)[C@@H](C)O)[C@@H](C)O)[C@@H](C)CC)[C@@H](C)CC)C(=O)N[C@@H](C)C(=O)NCC(=O)NCC(=O)N1CCC[C@H]1C(=O)N[C@@H](CO)C(=O)N[C@@H](CO)C(=O)NCC(=O)N[C@@H](C)C(=O)N1CCC[C@H]1C(=O)N1CCC[C@H]1C(=O)N1CCC[C@H]1C(=O)N[C@@H](CO)C(N)=O [Example 292] (H-[dY][Aib]EGTFTSDYSI[αMeL]LDKK([AEEA-AEEA-γGlu-C20 diacid])AQ[Aib]EFIE[αMeY]LIAGGPSSGAPPPS-NH2; N-terminus assumed) | 0.0547 | 0.0682 | 0.183 | 0.00774 | 29.0 | 595 | 1.19 | 0.429 |
| CC[C@H](C)[C@H](NC(=O)[C@H](CC(C)C)NC(=O)[C@H](Cc1ccc(O)cc1)NC(=O)[C@H](CCC(=O)O)NC(=O)[C@@H](NC(=O)[C@H](Cc1ccccc1)NC(=O)[C@H](C)NC(=O)C(C)(C)NC(=O)[C@H](CCC(N)=O)NC(=O)[C@H](C)NC(=O)[C@H](CCCCNC(=O)COCCOCCNC(=O)COCCOCCNC(=O)CC[C@H](NC(=O)CCCCCCCCCCCCCCCCCCC(=O)O)C(=O)O)NC(=O)[C@H](CCCCN)NC(=O)[C@H](CC(=O)O)NC(=O)[C@H](CC(C)C)NC(=O)[C@H](CC(C)C)NC(=O)[C@@H](NC(=O)[C@H](CO)NC(=O)[C@H](Cc1ccc(O)cc1)NC(=O)[C@H](CC(=O)O)NC(=O)[C@H](CO)NC(=O)[C@@H](NC(=O)[C@](C)(Cc1ccccc1)NC(=O)[C@@H](NC(=O)CNC(=O)[C@H](CCC(=O)O)NC(=O)C(C)(C)NC(=O)[C@H](N)Cc1ccc(O)cc1)[C@@H](C)O)[C@@H](C)O)[C@@H](C)CC)[C@@H](C)CC)C(=O)N[C@@H](CCC(=O)O)C(=O)NCC(=O)NCC(=O)N1CCC[C@H]1C(=O)N[C@@H](CO)C(=O)N[C@@H](CO)C(=O)NCC(=O)N[C@@H](C)C(=O)N1CCC[C@H]1C(=O)N1CCC[C@H]1C(=O)N1CCC[C@H]1C(=O)N[C@@H](CO)C(N)=O [Example 329] | 0.0439 | 0.132 | 0.125 | 0.00473 | 63.4 | 17 | 3.28 | 0.343 |
| CC[C@H](C)[C@H](NC(=O)[C@H](CC(C)C)NC(=O)[C@H](Cc1ccc(O)cc1)NC(=O)[C@H](CCC(=O)O)NC(=O)[C@@H](NC(=O)[C@H](Cc1ccccc1)NC(=O)[C@H](C)NC(=O)C(C)(C)NC(=O)[C@H](CCC(N)=O)NC(=O)[C@H](C)NC(=O)[C@H](CCCCNC(=O)COCCOCCNC(=O)COCCOCCNC(=O)CC[C@H](NC(=O)CCCCCCCCCCCCCCCCCCC(=O)O)C(=O)O)NC(=O)[C@H](CCC(=O)O)NC(=O)[C@H](CC(=O)O)NC(=O)[C@H](CC(C)C)NC(=O)[C@](C)(CC(C)C)NC(=O)[C@@H](NC(=O)[C@H](CO)NC(=O)[C@H](Cc1ccc(O)cc1)NC(=O)[C@H](CC(=O)O)NC(=O)[C@H](CO)NC(=O)[C@@H](NC(=O)[C@H](Cc1ccccc1)NC(=O)[C@@H](NC(=O)CNC(=O)[C@H](CCC(=O)O)NC(=O)C(C)(C)NC(=O)[C@@H](N)Cc1ccc(O)cc1)[C@@H](C)O)[C@@H](C)O)[C@@H](C)CC)[C@@H](C)CC)C(=O)N[C@@H](C)C(=O)NCC(=O)NCC(=O)N1CCC[C@H]1C(=O)N[C@@H](CO)C(=O)N[C@@H](CO)C(=O)NCC(=O)N[C@@H](C)C(=O)N1CCC[C@H]1C(=O)N1CCC[C@H]1C(=O)N1CCC[C@H]1C(=O)N[C@@H](CO)C(N)=O [Example 332] (H-Y[Aib]EGTFTSDYSI[αMeL]LDEK([AEEA-AEEA-γGlu-C20 diacid])AQ[Aib]AFIEYLIAGGPSSGAPPPS-NH2) | 0.0497 | 0.0745 | 0.184 | 0.0171 | 45.6 | 397 | 7.87 | 0.453 |
